Laboratory results: PubChem BioAssay AID1552 (Sanford-Burnham Center for Chemical Genomics, 2009)
The source made the active and inactive calls. No rule for the calls is given here.

Each molecule was assayed against Ubiquitin-conjugating enzyme E2 N (Homo sapiens) (UniProt P61088) (assay: UBE2N binders by NMR, biophysical, purified protein (AID 1552)). Settings: NMR binding to purified UBE2N.
Chain of Ubiquitin-conjugating enzyme E2 N (Homo sapiens) (P61088 whole entry, looked up): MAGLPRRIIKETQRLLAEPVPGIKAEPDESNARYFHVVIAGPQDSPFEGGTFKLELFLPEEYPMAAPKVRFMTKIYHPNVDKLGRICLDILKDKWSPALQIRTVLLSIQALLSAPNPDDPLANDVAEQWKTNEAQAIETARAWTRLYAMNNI
`O=C1NC(=O)C(C2SC(=O)NC2=O)S1` (centres undefined) was tested, and the Kd was > 4 mM (inactive).
`COC(=O)[C@]1(C)CC[C@]2(C)CC[C@]3(C)C4=CCc5c(cc(O)c(O)c5C)[C@]4(C)CC[C@@]3(C)C2C1` (some centres undefined) was tested, and the Kd was > 4 mM (inactive).
`CCOC(=O)c1ccc2c(c1)nnn2C` was tested, and the Kd was > 4 mM (inactive).
`Cc1cc(=O)cc(C)n1-c1ccccc1N1CCOCC1` was tested, and the Kd was > 4 mM (inactive).
In the case of `Cc1ccccc1-n1c(N)cc(=O)[nH]c1=S`, the Kd is reported as > 4 mM (inactive).
`OC1CCN(c2nccc(C(F)(F)F)n2)CC1` was tested, and the Kd was > 4 mM (inactive).
`CSc1ccc(/C=c2\sc3ncnn3c2=O)cc1` was tested, and the Kd was > 4 mM (inactive).
`C[C@H]1[C@H]2CCC3C4CC=C5C[C@@H](N(C)C)CC[C@]5(C)C4CC[C@@]32CN1C` (some centres undefined) was tested, and the Kd was > 4 mM (inactive).
`CC(=O)Nc1ccc2c(c1)n(C)c(=O)n2C` was tested, and the Kd was > 4 mM (inactive).
In the case of `COc1ccccc1NC(C)=O`, the Kd is reported as > 4 mM (inactive).
With `Cc1cccc(NC(=O)c2ccc(=O)[nH]n2)c1` the Kd was > 4 mM (inactive).
For `CC(C)=NNC(=O)C(=O)NC(C)(C)C`, the Kd was > 4 mM (inactive).
`O=C(c1ccc(Cl)c(F)c1F)N1CCCC1` was tested, and the Kd was > 4 mM (inactive).
For `N=c1c2c3c(sc2ncn1N)CCCC3`, the Kd was > 4 mM (inactive).
In the case of `Cc1onc(-c2ccccc2)c1CN`, the Kd is reported as > 4 mM (inactive).
In the case of `NC(=O)CSCc1c(Cl)cccc1Cl`, the Kd is reported as > 4 mM (inactive).
For `C(=N\c1nccs1)/c1cccnc1`, the Kd was > 4 mM (inactive).
`O=C(Cc1c(F)cccc1Cl)Nc1cccnc1` was tested, and the Kd was > 4 mM (inactive).
`CN=C1SC(CC(=O)Nc2ccc(O)cc2)C(=O)N1C` (centres undefined) was tested, and the Kd was > 4 mM (inactive).
In the case of `CCOC(=O)c1nc2ccccc2c(=O)n1N`, the Kd is reported as > 4 mM (inactive).
For `O=C1NC(=S)NC(=O)C1=Cc1ccco1`, the Kd was > 4 mM (inactive).
In the case of `O=C1NC(=O)C(C(=S)Nc2ccccc2)C(=O)N1`, the Kd is reported as > 4 mM (inactive).
In the case of `CSc1cc(C)[nH]c(=O)n1`, the Kd is reported as > 4 mM (inactive).
In the case of `Oc1ccccc1-c1nnco1`, the Kd is reported as > 4 mM (inactive).
`C[C@H]1[C@H](C)CC[C@]2(C(=O)O)CC[C@]3(C)C(=CCC4[C@@]5(C)C[C@@H](O)[C@H](O)[C@@](C)(CO)C5[C@H](O)C[C@]43C)[C@H]12` (some centres undefined) was tested, and the Kd was > 4 mM (inactive).
In the case of `Cc1sc(N)c(C(N)=O)c1C`, the Kd is reported as > 4 mM (inactive).
For `COc1ccc(NC(=O)C2CC(=O)N=C(N)S2)cc1` (centres undefined), the Kd was > 4 mM (inactive).
With `O=C(c1ccco1)N1CCn2c1nc1ccccc12` the Kd was > 4 mM (inactive).
In the case of `NC(=O)CN=Cc1c(O)[nH]c2ccccc12`, the Kd is reported as > 4 mM (inactive).
With `CC1(C)O[C@H]2CC(=O)OC[C@]23[C@H]2CC[C@@]4(C)[C@H](c5ccoc5)OC(=O)[C@H]5O[C@]54[C@]2(C)C(=O)C[C@@H]13` the Kd was > 4 mM (inactive).
In the case of `COc1ccc(C2NC(C(=O)O)CS2)cc1` (centres undefined), the Kd is reported as > 4 mM (inactive).
With `Cn1ccc(C(=O)NC(=S)NN2CCOCC2)n1` the Kd was > 4 mM (inactive).
For `Cc1ccc(C)n1NC(=O)c1ccco1`, the Kd was > 4 mM (inactive).
For `CC(=O)N1CC2(C)CN(C(C)=O)CC(C)(C1)C2O` (centres undefined), the Kd was > 4 mM (inactive).
`Cc1ccc(C(=O)Nc2nnc(-c3ccncc3)s2)o1` was tested, and the Kd was > 4 mM (inactive).
`COc1cc2c(cc1-c1cc3cc4ccoc4cc3oc1=O)OCO2` was tested, and the Kd was > 4 mM (inactive).
In the case of `O=c1[nH]c(=S)[nH]c2c1CCC2`, the Kd is reported as > 4 mM (inactive).
For `O=P1(O)c2ccccc2Nc2ccccc21`, the Kd was > 4 mM (inactive).
In the case of `O=c1n(-c2cccc(Cl)c2)c(=O)n2n1CCC2`, the Kd is reported as > 4 mM (inactive).
For `COc1cc2c(cc1OC)C1=C(C#N)CCC(=O)N1CC2`, the Kd was > 4 mM (inactive).
For `Cc1nn2c(=O)c(NC(=O)c3ccccc3)cnc2s1`, the Kd was > 4 mM (inactive).
With `NC(=O)CCN1C(=O)c2ccccc2C1=O` the Kd was > 4 mM (inactive).
`CN(C)c1ccc(C2CC(=O)CC(=O)C2)cc1` was tested, and the Kd was > 4 mM (inactive).
`COc1cc(O)ccc1C(C)=O` was tested, and the Kd was > 4 mM (inactive).
`OCn1nnn(-c2ccccc2)c1=S` was tested, and the Kd was > 4 mM (inactive).
With `Cn1[nH]c2nc3[nH]n(C)c(=O)c3c(-c3ccccc3)c2c1=O` the Kd was > 4 mM (inactive).
For `OCc1ccc(N2CCOCC2)cc1`, the Kd was > 4 mM (inactive).
With `C=CC(C1=CC(=O)C(OC)=CC1=O)c1ccccc1` (centres undefined) the Kd was > 4 mM (inactive).
With `Cc1cc(C(=O)Nc2nnc(C(F)(F)F)s2)no1` the Kd was > 4 mM (inactive).
With `Cc1ccc2cc(C(=O)O)ccc2n1` the Kd was > 4 mM (inactive).
With `Cc1occc1C(=O)N1CCC2(CC1)OCCO2` the Kd was > 4 mM (inactive).
`CC(=O)NC1C(=O)Nc2c(C)cc(C)cc21` (centres undefined) was tested, and the Kd was > 4 mM (inactive).
`O=S(=O)(Nc1cccnc1Cl)c1ccccc1` was tested, and the Kd was > 4 mM (inactive).
`CCn1c(C)c(C(C)=O)c(N2CCN(C)CC2)nc1=S` was tested, and the Kd was > 4 mM (inactive).
`COc1cc(OC)c2c(c1)O[C@H](c1ccc(OC)c(OC)c1)[C@@H](O)C2` was tested, and the Kd was > 4 mM (inactive).
With `O=C1Nc2ccccc2C1(O)Cc1ccncc1` (centres undefined) the Kd was > 4 mM (inactive).
With `CNC(=S)NCCN1CCOCC1` the Kd was > 4 mM (inactive).
`CN1CC(=O)N=C1N` was tested, and the Kd was > 4 mM (inactive).
`COC(=O)c1cnccc1C(F)(F)F` was tested, and the Kd was > 4 mM (inactive).
In the case of `Nc1nsc(-c2ccccc2)n1`, the Kd is reported as > 4 mM (inactive).
In the case of `Nc1ccc(S(=O)(=O)N2CCOCC2)cc1`, the Kd is reported as > 4 mM (inactive).
For `O=S1(=O)CCC(NC(=S)Nc2ccccn2)C1` (centres undefined), the Kd was > 4 mM (inactive).
With `CCOC(=O)c1ccc(F)c(F)c1` the Kd was > 4 mM (inactive).
`CC(O)C(=O)N/N=C/c1ccccc1` (centres undefined) was tested, and the Kd was > 4 mM (inactive).
With `c1ccc2c(c1)nnn2C1CCNCC1` the Kd was > 4 mM (inactive).
In the case of `Nc1c(N2CCCC2)cnn(-c2ccccc2)c1=O`, the Kd is reported as > 4 mM (inactive).
`COc1cc(O)c(C)c(O)c1` was tested, and the Kd was > 4 mM (inactive).
For `Cc1csc(NC(=O)c2ccoc2C)n1`, the Kd was > 4 mM (inactive).
With `CS(=O)(=O)N/N=C/c1cccs1` the Kd was > 4 mM (inactive).
For `CCOC(=O)c1c(SC)nc(=O)[nH]c1C`, the Kd was > 4 mM (inactive).
For `COC(=O)C[C@H]1C(C)(C)C(OC(C)=O)[C@]2(O)C=C3C(CC[C@]4(C)C3CC(=O)O[C@H]4c3ccoc3)C1(C)C2=O` (some centres undefined), the Kd was > 4 mM (inactive).
In the case of `N#Cc1nc(-c2cccs2)oc1N1CCOCC1`, the Kd is reported as > 4 mM (inactive).
In the case of `COc1ccc(C(=O)NNC(=S)NC(C)=O)cc1`, the Kd is reported as > 4 mM (inactive).
In the case of `CC(C)C(C)/C=C/C(C)C1CCC2C3=CC=C4CC(O)CCC4(C)C3CCC21C` (centres undefined), the Kd is reported as > 4 mM (inactive).
In the case of `CC(O)(C(=O)O)c1ccccc1` (centres undefined), the Kd is reported as > 4 mM (inactive).
With `Nc1nnc(SCc2ccc(F)cc2)s1` the Kd was > 4 mM (inactive).
With `COc1nc(C#N)c(N2CCOCC2)o1` the Kd was > 4 mM (inactive).
For `O=C(c1ccccc1)c1cncc(Br)c1`, the Kd was > 4 mM (inactive).
In the case of `Cc1occc1C(=O)NCc1ccncc1`, the Kd is reported as > 4 mM (inactive).
With `O=C(O)c1cncc(-c2ccccc2)c1` the Kd was > 4 mM (inactive).
`CN1CC(=O)Nc2ccc([N+](=O)[O-])cc2C1=O` was tested, and the Kd was > 4 mM (inactive).
`Cc1cc(=O)oc2cc3c(cc12)OCCO3` was tested, and the Kd was > 4 mM (inactive).
With `O=C1c2ccccc2C(=O)c2c1ccc(O)c2O` the Kd was > 4 mM (inactive).
With `CN1CCC[C@H]1c1cccnc1` the Kd was > 4 mM (inactive).
In the case of `CCc1cccc(C)c1NC(=O)c1cc(C)oc1C`, the Kd is reported as > 4 mM (inactive).
`COc1ccc(N2C(=O)CCC2=O)c(OC)c1` was tested, and the Kd was > 4 mM (inactive).
`NC(=O)c1cccnc1Oc1ccccc1` was tested, and the Kd was > 4 mM (inactive).
In the case of `COc1cc2c(cc1OC)[C@@H]1C(=O)c3ccc(O)c(CC=C(C)C)c3O[C@@H]1CO2`, the Kd is reported as > 4 mM (inactive).
For `COC(=O)N1CCN(c2ccc(OC)cc2)CC1`, the Kd was > 4 mM (inactive).
`CCC(C)C(=O)O[C@@H]1C[C@@]2(C)[C@H](c3ccoc3)OC(=O)CC23OC2(C)OC34[C@H](OC(=O)C(C)C)[C@@]3(O)[C@@H](OC(=O)C5(C)OC5C)[C@@]5(C)C[C@]3(O)[C@@](C)([C@H]5CC(=O)OC)C14O2` (some centres undefined) was tested, and the Kd was > 4 mM (inactive).
`NCCCCN=C(N)N` was tested, and the Kd was > 4 mM (inactive).
In the case of `O=C(c1cnsn1)N1CCN(c2ccccc2)CC1`, the Kd is reported as > 4 mM (inactive).
With `Cc1c(-c2ccc(F)cc2)[n+](=O)c2c(n1[O-])CCC2` the Kd was > 4 mM (inactive).
For `CN1CN/C(=N\[N+](=O)[O-])N(c2ccccc2)C1`, the Kd was > 4 mM (inactive).
For `O=c1sc2ccccc2n1CN1CCOCC1`, the Kd was > 4 mM (inactive).
For `CSc1nn(-c2ccccc2)c(N)c1C#N`, the Kd was > 4 mM (inactive).
With `NC12CC3CC(C1)CC(C(=O)O)(C3)C2` the Kd was > 4 mM (inactive).
For `COC(=O)c1cncn1C`, the Kd was > 4 mM (inactive).
`COc1c(C)c2c(c(O)c1C/C=C(\C)CCC(=O)O)C(=O)OC2` was tested, and the Kd was > 4 mM (inactive).
For `c1cncc(Nc2nc(-c3cccnc3)cs2)c1`, the Kd was > 4 mM (inactive).
`Cc1nc(NC2=NCCC(=O)N2)nc2ccccc12` was tested, and the Kd was > 4 mM (inactive).
In the case of `O=C(O)C1CSC(c2ccco2)N1` (centres undefined), the Kd is reported as > 4 mM (inactive).
`COc1cc(C2NC(=S)NC(C)=C2C(C)=O)ccc1O` (centres undefined) was tested, and the Kd was > 4 mM (inactive).
In the case of `Oc1cccc2[nH]ccc12`, the Kd is reported as > 4 mM (inactive).
`O=C1CSC(=O)N1CN1CCCC1` was tested, and the Kd was > 4 mM (inactive).
In the case of `Nc1ccc2nccnc2c1`, the Kd is reported as > 4 mM (inactive).
For `O=c1ccc2cc(O)c(O)cc2o1`, the Kd was > 4 mM (inactive).
For `Cn1ccnc1SCc1cc(=O)[nH]c2ccccc12`, the Kd was > 4 mM (inactive).
`C=C1C2CC[C@H]3[C@]4(C)C[C@H](OC5OC(CO)C(OS(=O)(=O)O)C(OS(=O)(=O)O)C5OC(=O)CC(C)C)C[C@@H](C(=O)O)[C@H]4CC[C@]3(C2)[C@H]1O` (some centres undefined) was tested, and the Kd was > 4 mM (inactive).
For `O=C(C1CCC(C(=O)N2CCCC2)CC1)N1CCCC1` (centres undefined), the Kd was > 4 mM (inactive).
With `CN1CCN(C(=O)c2ccco2)CC1` the Kd was > 4 mM (inactive).
In the case of `Cc1cccc(OCc2nnc(N)s2)c1`, the Kd is reported as > 4 mM (inactive).
In the case of `O=C1NC(=Nc2ccc(O)cc2)S/C1=C/c1ccco1`, the Kd is reported as > 4 mM (inactive).
`OCCCc1nc2ccc(C(F)(F)F)cc2[nH]1` was tested, and the Kd was > 4 mM (inactive).
For `O=c1c(-c2ccccc2)coc2cc(O)cc(O)c12`, the Kd was > 4 mM (inactive).
In the case of `CC(=O)c1ccc(Cc2cnc(N)s2)cc1`, the Kd is reported as > 4 mM (inactive).
For `NCc1ccc(N2CCOCC2)cc1`, the Kd was > 4 mM (inactive).
In the case of `CC(=O)NC(=S)Nc1ccccc1N1CCOCC1`, the Kd is reported as > 4 mM (inactive).
In the case of `COc1cccc(N2CCN(C(=O)c3cccnc3)CC2)c1`, the Kd is reported as > 4 mM (inactive).
